Key:
[1] = Linear fitting of MRI signal intensity vs contrast agent concentration in agarose; assay type: physicochemical
Method: According to the curve, when the concentration of the contrast agents is in the range of 0-5 mM, the SI increased with the concentration. The concentration is related to the SI. In the curve, the abscissa is the concentration of the contrast agent which reflects the mobility of the ISF in brain ECS and the ordinate is the SI of MRI. It is known by the persons skilled in art that the SI here may be the directly SI or the result which is calculated indirectly from the SI such as T1. In the exemplary embodiment, the contrast agents are Gd-DPTA. Other non-ferromagnetic, non-neurotoxicity and extracellular contrast agents, such as T1 positive MRI contrast agent, also can be used here.
According to the curve shown in FIG. 2, the liner equation of the curve is obtained as below
In the four experiments, injecting contrast agents with different concentration range are into agarose, the distribution of SI of the MRI is measured in different magnetic field intensity or different MRI sequence. When quantitative measuring the contrast agents via the SI, the value of K and B can be determined via linear fitting according to the experimental conditions,
FIG. 3 is a fitting curve of the SI and the concentration of the contrast agents corresponding to the Experiment 1 shown in Table 1. It is the measurement result under the circumstances that the magnetic field intensity is 1.5T, the MRI sequence is FLASH 2D, the contrast agent is Gd-DTPA and the concentration range is 0 to 1.2 mM. According to the fitting curve, the value of K is 337.434 and the value of B is 184.344.

[2] = MRI of contrast agent diffusion after injection into brain ECS of rat caudate nucleus; assay type: in vivo
Method: In this exemplary embodiment, the rat 10 is anesthetized and incised in the scalp along the sagittal suture. The periosteum was separated and the bregma was exposed. 1 μL Gd-DTPA with concentration range of 5 to 25 mM is injected into the brain ECS of the rat caudate nucleus at the rate of 0.1 μL/min.
The microsyringe is slowly removed 5 minutes after injecting. In FIG. 4, the rat narcotized is placed in the wrist coil 30 in the prone position and sent into the imaging device 20 with the examination couch 12. A T1 weighted sequence is used for the MRI scanning MR images from the imaging device 20 are processed in the image-processing unit of the controlling device 40.
FIG. 6 is a curve of SI increment (ASI) vs. time of the contrast agents along X direction of FIG. 5 at the spots respectively 1 mm, 2 mm, and 3 mm away from the injection site. The increment of SI reflected the concentration increment of the contrast agents. In FIG. 6, the peak of ASI appears in the region which is 1 mm away from the injection site about 1 h after injection, and then value of ASI slowly falls down.

O=C([O-])CN(CCN(CC(=O)[O-])CC(=O)O)CCN(CC(=O)[O-])CC(=O)O.[Gd+3] [Gd-DTPA]
Value of K (slope of SI vs concentration) ([1]; Experiment 1: 1.5T, FLASH 2D, concentration range 0-1.2 mM): 337.434
Value of K (slope of SI vs concentration) ([1]; Experiment 2: 3T, FLASH 2D, concentration range 0-1.2 mM): 247.834
Value of K (slope of SI vs concentration) ([1]; Experiment 3: 3T, 3D MP-RAGE, concentration range 0-0.5 mM): 1913.686
Value of K (slope of SI vs concentration) ([1]; Experiment 4: 3T, 3D MP-RAGE, concentration range 0-1 mM): 1174.5
Time of peak of SI increment (ASI) after injection ([2]; 1 mm away from injection site along X direction, 1 μL 5 to 25 mM into caudate nucleus): about 1 h
Course of SI increment (ASI, concentration increment) over time ([2]; spots 2 mm and 3 mm away from injection site (cortex)): first slowly increases then slowly decreases

From US20120238865A1, “Method for Measuring the Physiological Parameters of Brain Interstitial Fluid and Brain Extracellular Space” (priority 2009, published 2012)
